Data reported in ChEMBL document CHEMBL3045927, “Synthesis of 4-methyl-1,2,3-thiadiazole derivatives via Ugi reaction and their biological activities” (2010).

Legend:
Type in all cases: functional
Tobacco mosaic virus [1] = test: In vitro antiviral activity against Tobacco mosaic virus (TMV) infected tobacco leaves at 100 ug/ml
Tobacco mosaic virus [2] = test: In vivo antiviral activity against Tobacco mosaic virus (TMV) infected tobacco leaves assessed as protective effect at 500 ug/ml treated 12 hr before viral inoculation measured at 2-3 days after viral challenge
Tobacco mosaic virus [3] = test: In vivo antiviral activity against Tobacco mosaic virus (TMV) infected tobacco leaves assessed as protective effect at 100 ug/ml treated 12 hr before viral inoculation measured at 2-3 days after viral challenge
Tobacco mosaic virus [4] = test: In vivo antiviral activity against Tobacco mosaic virus (TMV) infected tobacco leaves assessed as inactivation effect at 100 ug/ml co-treated with virus for 30 min before inoculation onto leaves measured at 2-3 days after viral challenge
Nicotiana tabacum [5] = test: Induction of systemic acquired resistance activity in TMV infected-Nicotiana tabacum (tobacco) leaves at 50 ug/ml
Tobacco mosaic virus [6] = test: In vitro antiviral activity against Tobacco mosaic virus (TMV) infected tobacco leaves at 500 ug/ml
Tobacco mosaic virus [7] = test: In vivo antiviral activity against Tobacco mosaic virus (TMV) infected tobacco leaves assessed as curative effect at 500 ug/ml treated after viral inoculation measured at 2-3 days after viral challenge
Tobacco mosaic virus [8] = test: In vivo antiviral activity against Tobacco mosaic virus (TMV) infected tobacco leaves assessed as curative effect at 100 ug/ml treated after viral inoculation measured at 2-3 days after viral challenge
Nicotiana tabacum [9] = test: Induction of systemic acquired resistance activity in TMV infected-Nicotiana tabacum (tobacco) leaves at 100 ug/ml
Tobacco mosaic virus [10] = test: In vivo antiviral activity against Tobacco mosaic virus (TMV) infected tobacco leaves assessed as inactivation effect at 500 ug/ml co-treated with virus for 30 min before inoculation onto leaves measured at 2-3 days after viral challenge
[11] = system: Botryosphaeria berengeriana; test: Fungicidal activity against Botryosphaeria berengeriana at 50 ug/ml by growth inhibition method; design: scale not given: the % may be the effect or the level left
Mycosphaerella arachidis = test: Fungicidal activity against Mycosphaerella arachidis at 50 ug/ml by growth inhibition method; design: scale not given: the % may be the effect or the level left
Alternaria solani = test: Fungicidal activity against Alternaria solani at 50 ug/ml by growth inhibition method; design: scale not given: the % may be the effect or the level left
Thanatephorus cucumeris = test: Fungicidal activity against Thanatephorus cucumeris at 50 ug/ml by growth inhibition method; design: scale not given: the % may be the effect or the level left
Fusarium oxysporum = test: Fungicidal activity against Fusarium oxysporum at 50 ug/ml by growth inhibition method; design: scale not given: the % may be the effect or the level left
Pyricularia grisea = test: Fungicidal activity against Magnaporthe grisea at 50 ug/ml by growth inhibition method; design: scale not given: the % may be the effect or the level left
Phytophthora infestans = test: Fungicidal activity against Phytophthora infestans at 50 ug/ml by growth inhibition method; design: scale not given: the % may be the effect or the level left
Colletotrichum lagenaria = test: Fungicidal activity against Colletotrichum lagenaria at 50 ug/ml by growth inhibition method; design: scale not given: the % may be the effect or the level left
Rhizoctonia solani = test: Fungicidal activity against Rhizoctonia solani at 50 ug/ml by growth inhibition method; design: scale not given: the % may be the effect or the level left
Cercospora beticola = test: Fungicidal activity against Cercospora beticola at 50 ug/ml by growth inhibition method; design: scale not given: the % may be the effect or the level left
Fusarium graminearum = test: Fungicidal activity against Fusarium graminearum at 50 ug/ml by growth inhibition method; design: scale not given: the % may be the effect or the level left

Cc1ccc(NC(=O)c2snnc2C)cc1Cl [TIADINIL]
inhibition at 100 µg/mL (Tobacco mosaic virus [1]): 37%
Activity (Tobacco mosaic virus [2]): 48%
Activity (Tobacco mosaic virus [3]): 35%
Activity (Tobacco mosaic virus [4]): 70%
Activity (Nicotiana tabacum [5]): 47%
inhibition at 500 µg/mL (Tobacco mosaic virus [6]): 51%
Activity (Tobacco mosaic virus [7]): 44%
Activity (Tobacco mosaic virus [8]): 12%
Activity (Nicotiana tabacum [9]): 49%
Activity (Tobacco mosaic virus [10]): 70%

NC(=O)c1ncn([C@@H]2O[C@H](CO)[C@@H](O)[C@H]2O)n1 [RIBAVIRIN]
inhibition at 100 µg/mL (Tobacco mosaic virus [1]): 28%
Activity (Tobacco mosaic virus [2]): 44%
Activity (Tobacco mosaic virus [3]): 40%
Activity (Tobacco mosaic virus [4]): 57%
Activity (Nicotiana tabacum [5]): 40%
inhibition at 500 µg/mL (Tobacco mosaic virus [6]): 38%
Activity (Tobacco mosaic virus [7]): 46%
Activity (Tobacco mosaic virus [8]): 14%
Activity (Nicotiana tabacum [9]): 10%
Activity (Tobacco mosaic virus [10]): 71%

Cc1cccc(C(C(=O)NC2CCCCC2)N(C(=O)c2snnc2C)c2ccc(C)c(Cl)c2)c1 (stereo not drawn)
Activity [11]: 35%
inhibition at 100 µg/mL (Tobacco mosaic virus [1]): 11%
Activity (Mycosphaerella arachidis): 17%
Activity (Alternaria solani): 37%
inhibition at 500 µg/mL (Tobacco mosaic virus [6]): 19%
Activity (Thanatephorus cucumeris): 24%
Activity (Fusarium oxysporum): 18%
Activity (Pyricularia grisea): 10%
Activity (Phytophthora infestans): 35%
Activity (Colletotrichum lagenaria): 14%
Activity (Rhizoctonia solani): 63%
Activity (Cercospora beticola): 27%

Cc1ccc(N(C(=O)c2snnc2C)C(C(=O)NC2CCCCC2)c2ccc(O)cc2)cc1F (stereo not drawn)
Activity [11]: 0%
inhibition at 100 µg/mL (Tobacco mosaic virus [1]): 20%
Activity (Tobacco mosaic virus [2]): 55%
Activity (Mycosphaerella arachidis): 36%
Activity (Tobacco mosaic virus [3]): 40%
Activity (Tobacco mosaic virus [4]): 65%
Activity (Nicotiana tabacum [5]): 44%
Activity (Fusarium graminearum): 24%
Activity (Alternaria solani): 0%
inhibition at 500 µg/mL (Tobacco mosaic virus [6]): 70%
Activity (Thanatephorus cucumeris): 14%
Activity (Pyricularia grisea): 14%
Activity (Phytophthora infestans): 0%
Activity (Tobacco mosaic virus [7]): 43%
Activity (Colletotrichum lagenaria): 5%
Activity (Tobacco mosaic virus [8]): 34%
Activity (Nicotiana tabacum [9]): 65%
Activity (Rhizoctonia solani): 40%
Activity (Cercospora beticola): 17%
Activity (Tobacco mosaic virus [10]): 68%

Cc1ccc(N(C(=O)c2snnc2C)C(C(=O)NC2CCCCC2)c2ccccc2)cc1Cl (stereo not drawn)
Activity [11]: 22%
inhibition at 100 µg/mL (Tobacco mosaic virus [1]): 19%
Activity (Mycosphaerella arachidis): 61%
Activity (Alternaria solani): 32%
inhibition at 500 µg/mL (Tobacco mosaic virus [6]): 24%
Activity (Thanatephorus cucumeris): 17%
Activity (Fusarium oxysporum): 25%
Activity (Pyricularia grisea): 40%
Activity (Phytophthora infestans): 32%
Activity (Colletotrichum lagenaria): 9%
Activity (Rhizoctonia solani): 63%
Activity (Cercospora beticola): 36%

Cc1ccc(N(C(=O)c2snnc2C)C(C(=O)NC2CCCCC2)c2ccccc2C(F)(F)F)cc1F (stereo not drawn)
Activity [11]: 23%
inhibition at 100 µg/mL (Tobacco mosaic virus [1]): 33%
Activity (Tobacco mosaic virus [2]): 51%
Activity (Mycosphaerella arachidis): 29%
Activity (Tobacco mosaic virus [3]): 49%
Activity (Tobacco mosaic virus [4]): 26%
Activity (Nicotiana tabacum [5]): 57%
Activity (Fusarium graminearum): 15%
Activity (Alternaria solani): 44%
inhibition at 500 µg/mL (Tobacco mosaic virus [6]): 48%
Activity (Thanatephorus cucumeris): 11%
Activity (Pyricularia grisea): 29%
Activity (Phytophthora infestans): 53%
Activity (Tobacco mosaic virus [7]): 30%
Activity (Colletotrichum lagenaria): 47%
Activity (Tobacco mosaic virus [8]): 13%
Activity (Nicotiana tabacum [9]): 45%
Activity (Rhizoctonia solani): 37%
Activity (Cercospora beticola): 75%
Activity (Tobacco mosaic virus [10]): 39%

Cc1ccc(N(C(=O)c2snnc2C)C(C(=O)NC2CCCCC2)c2cccc(C(F)(F)F)c2)cc1Cl (stereo not drawn)
Activity [11]: 31%
inhibition at 100 µg/mL (Tobacco mosaic virus [1]): 22%
Activity (Mycosphaerella arachidis): 21%
Activity (Alternaria solani): 32%
inhibition at 500 µg/mL (Tobacco mosaic virus [6]): 19%
Activity (Thanatephorus cucumeris): 30%
Activity (Fusarium oxysporum): 31%
Activity (Pyricularia grisea): 24%
Activity (Phytophthora infestans): 20%
Activity (Colletotrichum lagenaria): 20%
Activity (Rhizoctonia solani): 20%
Activity (Cercospora beticola): 22%

Cc1ccc(N(C(=O)c2snnc2C)C(C(=O)NC2CCCCC2)c2cccc(F)c2)cc1Cl (stereo not drawn)
Activity [11]: 22%
inhibition at 100 µg/mL (Tobacco mosaic virus [1]): 9%
Activity (Mycosphaerella arachidis): 39%
Activity (Alternaria solani): 21%
inhibition at 500 µg/mL (Tobacco mosaic virus [6]): 18%
Activity (Thanatephorus cucumeris): 17%
Activity (Fusarium oxysporum): 21%
Activity (Pyricularia grisea): 15%
Activity (Phytophthora infestans): 21%
Activity (Colletotrichum lagenaria): 9%
Activity (Rhizoctonia solani): 69%
Activity (Cercospora beticola): 27%
